The source of these data is US20240287080A1 (IDEAYA Biosciences Inc., priority 2021, published 2024).

As a reminder, the IC50 is the concentration that gives 50% inhibition. Read a high IC50 as a need for much substance.

T1 sequence (O75417 1-899): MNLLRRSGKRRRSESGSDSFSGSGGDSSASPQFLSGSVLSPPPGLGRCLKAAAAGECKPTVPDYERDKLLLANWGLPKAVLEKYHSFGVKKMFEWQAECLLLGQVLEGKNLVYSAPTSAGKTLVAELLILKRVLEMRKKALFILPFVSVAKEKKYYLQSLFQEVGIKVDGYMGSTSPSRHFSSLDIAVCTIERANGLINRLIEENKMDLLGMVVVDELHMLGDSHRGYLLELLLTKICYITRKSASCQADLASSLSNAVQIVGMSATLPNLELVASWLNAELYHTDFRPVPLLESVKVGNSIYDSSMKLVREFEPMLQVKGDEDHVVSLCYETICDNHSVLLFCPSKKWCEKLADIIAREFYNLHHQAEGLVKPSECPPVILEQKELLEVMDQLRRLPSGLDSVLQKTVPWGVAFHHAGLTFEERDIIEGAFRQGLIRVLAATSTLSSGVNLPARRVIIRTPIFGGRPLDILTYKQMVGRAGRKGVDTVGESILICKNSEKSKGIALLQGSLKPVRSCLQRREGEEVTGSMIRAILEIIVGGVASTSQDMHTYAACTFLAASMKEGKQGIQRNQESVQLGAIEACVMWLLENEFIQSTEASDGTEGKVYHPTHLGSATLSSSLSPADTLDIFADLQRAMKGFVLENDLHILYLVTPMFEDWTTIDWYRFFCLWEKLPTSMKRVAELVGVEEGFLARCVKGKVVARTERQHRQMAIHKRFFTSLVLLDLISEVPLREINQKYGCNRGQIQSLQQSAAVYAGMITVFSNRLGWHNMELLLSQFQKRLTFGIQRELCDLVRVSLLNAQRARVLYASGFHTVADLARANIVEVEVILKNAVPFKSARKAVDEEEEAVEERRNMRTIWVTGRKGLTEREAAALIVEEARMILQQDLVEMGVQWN

This test addresses T1, Pol theta (1-899) (Homo sapiens, UniProt O75417).
T1 construct: Pol theta (1-899) (5 nM) in assay buffer
Nature of the test: Pol theta ATPase activity, NADH oxidation-coupled enzymatic assay (ATPase NADH coupling: Standard Screening: hPolQ). In kind it is biochemical. As to conditions: Pol theta (1-899) 5 nM, NADH oxidation-coupled ATPase assay; compounds of Table 3. Put shortly:
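NADH-coupled ATPase readout: 5 nM Pol theta (1-899) preincubated 15 min with 10-point compound series in Tris pH 7.80, KCl, MgCl2, DTT, BSA, Tween, glycerol, then 100 μM ATP, 300 nM 50-mer poly-dT ssDNA, NADH, PEP, LDH and PK added (stock levels). A340 followed 60 min; slopes fit four-parameter for IC50.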
On to `COc1nnc(NC(=O)c2cnc(C)cc2-c2cccc3c2ccn3C)s1` [Example 482, N-(5-methoxy-1,3,4-thiadiazol-2-yl)-6-methyl-4-(1-methyl-1H-indol-4-yl)pyridine-3-carboxamide], for which the IC50 was in the range of 1000 to 10000 nM.

On to `COc1nnc(NC(=O)c2cnc(C)cc2-c2cncc(C(=O)N(C)C)c2)s1` [Example 483, N3′-(5-methoxy-1,3,4-thiadiazol-2-yl)-N5,N5,6′-trimethyl-[3,4′-bipyridine]-3′,5-dicarboxamide], for which the IC50 was in the range of 1000 to 10000 nM.

With `CCCCc1ccc(-c2cc(C)ncc2C(=O)Nc2nnc(OC)s2)cc1` [Example 484, 4-(4-butylphenyl)-N-(5-methoxy-1,3,4-thiadiazol-2-yl)-6-methylpyridine-3-carboxamide], the IC50 is 1000 to 10000 nM.

For `COc1nnc(NC(=O)c2cnc(C)cc2-c2cccc3ncccc23)s1` [Example 485, N-(5-methoxy-1,3,4-thiadiazol-2-yl)-6-methyl-4-(quinolin-5-yl)nicotinamide], the IC50 was 200 to 500 nM.

`COc1ccc(OC)c(-c2cc(C)ncc2C(=O)Nc2nnc(OC)s2)c1` [Example 486, 4-(2,5-dimethoxyphenyl)-N-(5-methoxy-1,3,4-thiadiazol-2-yl)-6-methylnicotinamide] gave an IC50 of 500 to 1000 nM.

Molecule `COc1nnc(NC(=O)c2cnc(C)cc2-c2ccc3[nH]ncc3c2)s1` [Example 487, 4-(1H-indazol-5-yl)-N-(5-methoxy-1,3,4-thiadiazol-2-yl)-6-methylnicotin amide] registered an IC50 of 500 to 1000 nM.

In the case of `COc1nnc(NC(=O)c2cnc(C)cc2-c2cccc(C(N)=O)c2)s1` [Example 488, 4-(3-carbamoylphenyl)-N-(5-methoxy-1,3,4-thiadiazol-2-yl)-6-methylnicotinamide], the IC50 was in the range of 1000 to 10000 nM.

`COc1nnc(NC(=O)c2cnc(C)cc2-c2cccc3nn(C)cc23)s1` [Example 489, N-(5-methoxy-1,3,4-thiadiazol-2-yl)-6-methyl-4-(2-methyl-2H-indazol-4-yl)pyridine-3-carboxamide]: the IC50 is 1000 to 10000 nM.

With `COc1nnc(NC(=O)c2cnc(C)cc2-c2ccc3nc[nH]c3c2)s1` [Example 490, 4-(1H-1,3-benzodiazol-6-yl)-N-(5-methoxy-1,3,4-thiadiazol-2-yl)-6-methylpyridine-3-carboxamide], the IC50 lay within 1000 to 10000 nM.
